Among the data in patent US11878970B2, “Allosteric chromenone inhibitors of phosphoinositide 3-kinase (PI3K) for the treatment of disease” (Petra Pharma Corporation, priority 2021, dated 2024) are IC50 values, retold here.

In assay [1] the target is T1, PI3K-α (PIK3CA) wild-type (WT), p110α/p85α complex (Homo sapiens, UniProt P42336).
T1 construct: Recombinant, catalytically active human full length PIK3KA Wild-type and H1047R mutant; 6×His (N); purchased EMD Millipore Sigma 14-602M
Nature of the assay: PI3K-alpha kinase (PIK3CA) biochemical activity, ADP-Glo, wild-type. The conditions noted are these: Soy PI lipid substrate. An outline of the steps: (§1)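 ADP formation measured by ADP-Glo luminescence after reaction at 27 °C to about 10% ATP turnover, using 20 uM ATP, 50 uM PIP2diC8 or soy PI lipid, HEPES pH 7.4 with MgCl2. Enzyme (1-5 nM WT or H1047R p110α/p85α) and compound preincubated 1 h first; 10-point 1:3 curves fitted four-parameter for IC50.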

The target of assay [2] is T2, PI3K-α (PIK3CA) H1047R mutant, p110α/p85α complex (Homo sapiens, UniProt P42336, H1047R).
T2 construct: Recombinant, catalytically active human full length PIK3KA Wild-type and H1047R mutant; 6×His (N); purchased EMD Millipore Sigma 14-792M
Nature of the assay: PI3K-alpha kinase (PIK3CA) biochemical activity, ADP-Glo, H1047R mutant. The conditions noted are these: Soy PI lipid substrate. An outline of the steps:
as §1

Assay [3] has as its target PI3K-α (PIK3CA) in MDA-MB-453 cells (Homo sapiens, UniProt P42336). Nature of the assay: PI3K-alpha kinase (PIK3CA) in vitro cell based assay, MDA-MB-453 cells, SureFire Ultra AlphaLisa. The conditions noted are these: read-out: PI3K-α (PIK3CA) in vitro cell based assay IC50. An outline of the steps:
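Cells treated 3 h in serum-free MEM with 1 μg/mL insulin, 10-point 1:3 series in 0.3% DMSO, then lysed for SureFire Ultra AlphaLisa read-out. Inhibition normalized to DMSO (max) and 1 μM GDC-0032 (min); duplicate averages fitted by 4-parameter logistic for relative IC50.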

T2 sequence (P42336 whole entry H1047R): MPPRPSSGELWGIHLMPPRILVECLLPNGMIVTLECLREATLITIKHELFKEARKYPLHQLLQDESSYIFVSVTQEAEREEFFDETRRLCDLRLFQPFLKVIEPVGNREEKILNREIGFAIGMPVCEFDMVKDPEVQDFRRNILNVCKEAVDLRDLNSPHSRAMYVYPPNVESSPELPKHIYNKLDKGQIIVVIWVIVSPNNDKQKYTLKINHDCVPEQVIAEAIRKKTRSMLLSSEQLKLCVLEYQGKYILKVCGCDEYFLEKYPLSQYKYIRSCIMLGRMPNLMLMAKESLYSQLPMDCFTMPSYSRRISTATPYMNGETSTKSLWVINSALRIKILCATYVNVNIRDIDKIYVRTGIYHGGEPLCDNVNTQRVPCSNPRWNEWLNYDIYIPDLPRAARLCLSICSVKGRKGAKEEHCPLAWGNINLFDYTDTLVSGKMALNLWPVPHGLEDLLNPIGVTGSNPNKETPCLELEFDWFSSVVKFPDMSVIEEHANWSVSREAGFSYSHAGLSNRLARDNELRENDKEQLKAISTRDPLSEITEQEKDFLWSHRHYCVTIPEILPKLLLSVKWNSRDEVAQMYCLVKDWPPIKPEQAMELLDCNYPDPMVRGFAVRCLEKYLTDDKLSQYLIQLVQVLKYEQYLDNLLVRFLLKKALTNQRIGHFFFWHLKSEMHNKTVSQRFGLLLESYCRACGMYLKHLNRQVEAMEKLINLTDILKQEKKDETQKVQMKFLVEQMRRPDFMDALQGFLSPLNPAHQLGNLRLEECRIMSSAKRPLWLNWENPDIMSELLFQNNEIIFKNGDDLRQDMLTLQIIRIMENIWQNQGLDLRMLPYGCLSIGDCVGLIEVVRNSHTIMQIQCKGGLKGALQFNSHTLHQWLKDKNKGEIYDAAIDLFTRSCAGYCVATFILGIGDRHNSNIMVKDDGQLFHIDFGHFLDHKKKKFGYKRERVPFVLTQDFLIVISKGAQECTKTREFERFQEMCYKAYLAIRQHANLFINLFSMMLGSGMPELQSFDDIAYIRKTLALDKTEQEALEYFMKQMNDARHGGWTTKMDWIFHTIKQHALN
T2 sequence (P27986 whole entry partner): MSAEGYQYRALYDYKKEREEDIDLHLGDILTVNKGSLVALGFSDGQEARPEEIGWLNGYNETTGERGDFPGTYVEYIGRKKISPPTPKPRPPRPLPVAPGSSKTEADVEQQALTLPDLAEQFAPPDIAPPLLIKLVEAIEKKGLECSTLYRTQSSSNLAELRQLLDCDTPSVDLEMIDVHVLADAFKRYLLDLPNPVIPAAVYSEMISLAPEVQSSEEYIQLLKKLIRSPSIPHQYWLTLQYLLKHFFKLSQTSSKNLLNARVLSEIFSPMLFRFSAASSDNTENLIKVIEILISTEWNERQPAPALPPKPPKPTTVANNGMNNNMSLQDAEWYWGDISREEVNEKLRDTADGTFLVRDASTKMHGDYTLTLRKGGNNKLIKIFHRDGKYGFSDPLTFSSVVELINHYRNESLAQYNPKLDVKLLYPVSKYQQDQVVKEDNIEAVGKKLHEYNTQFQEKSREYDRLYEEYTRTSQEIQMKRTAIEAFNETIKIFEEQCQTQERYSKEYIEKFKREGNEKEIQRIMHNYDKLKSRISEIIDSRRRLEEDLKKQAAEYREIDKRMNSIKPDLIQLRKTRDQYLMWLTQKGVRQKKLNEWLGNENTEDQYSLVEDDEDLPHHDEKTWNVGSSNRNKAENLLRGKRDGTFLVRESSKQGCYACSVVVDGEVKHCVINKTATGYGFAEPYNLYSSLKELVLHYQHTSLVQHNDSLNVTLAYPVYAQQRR
Chain of PI3K-α (PIK3CA) in MDA-MB-453 cells (P27986 2-724): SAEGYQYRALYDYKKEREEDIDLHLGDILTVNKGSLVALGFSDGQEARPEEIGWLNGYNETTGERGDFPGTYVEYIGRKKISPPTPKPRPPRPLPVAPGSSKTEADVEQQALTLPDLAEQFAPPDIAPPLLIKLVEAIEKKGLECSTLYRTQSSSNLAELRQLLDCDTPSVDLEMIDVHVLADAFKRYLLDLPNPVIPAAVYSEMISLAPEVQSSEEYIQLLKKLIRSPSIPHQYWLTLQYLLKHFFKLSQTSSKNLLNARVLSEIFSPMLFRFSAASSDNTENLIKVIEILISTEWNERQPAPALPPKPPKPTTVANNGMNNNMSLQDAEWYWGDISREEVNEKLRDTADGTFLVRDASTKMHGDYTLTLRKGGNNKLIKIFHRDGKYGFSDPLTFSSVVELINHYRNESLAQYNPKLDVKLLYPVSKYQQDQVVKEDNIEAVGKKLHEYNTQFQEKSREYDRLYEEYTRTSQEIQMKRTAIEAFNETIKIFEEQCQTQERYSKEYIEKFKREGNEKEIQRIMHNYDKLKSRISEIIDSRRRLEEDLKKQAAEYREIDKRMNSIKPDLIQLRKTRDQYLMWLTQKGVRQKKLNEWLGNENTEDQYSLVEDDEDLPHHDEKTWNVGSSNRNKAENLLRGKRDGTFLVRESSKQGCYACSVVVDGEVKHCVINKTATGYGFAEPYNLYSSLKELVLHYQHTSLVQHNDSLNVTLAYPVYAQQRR
Chain of PI3K-α (PIK3CA) in MDA-MB-453 cells (P42336 whole entry): as the sequence (P42336 whole entry H1047R) above, with R1047H counted along it

As for `Cc1cc([C@@H](C)Nc2ccc(F)cc2C(=O)O)c2oc(-c3ccc4c(cnn4C)c3)c(C)c(=O)c2c1` [Example 260, 2-[[(1R)-1-[3,6-Dimethyl-2-(1-methylindazol-5-yl)-4-oxo-chromen-8-yl]ethyl]amino]-5-fluoro-benzoic acid], the IC50 was < 500 nM in assay [1], < 500 nM in assay [2] and < 50 nM in assay [3].

With `Cc1cc(C(C)Nc2ccccc2C(=O)O)c2oc(-c3ccn4cc(C)nc4c3)cc(=O)c2c1` (single isomer, unassigned) [Example 3, 2-[1-[6-Methyl-2-(2-methylimidazo[1,2-a]pyridin-7-yl)-4-oxo-chromen-8-yl]ethylamino]benzoic acid], the IC50 was 1000 to 5000 nM in assay [1], < 500 nM in assay [2] and 50 to 100 nM in assay [3].

As to `Cc1cc(C(C)Nc2ccccc2C(=O)O)c2oc(-c3cnn4cccnc34)cc(=O)c2c1` (single isomer, unassigned) [Example 34, 2-[1-(6-Methyl-4-oxo-2-pyrazolo[1,5-a]pyrimidin-3-yl-chromen-8-yl)ethylamino]benzoic acid], the IC50 in assay [1] is 1000 to 5000 nM; in assay [2], < 500 nM; in assay [3], 50 to 100 nM.

For the compound `Cc1cc(C(C)Nc2ccccc2C(=O)O)c2oc(-c3cc4ccccc4[nH]3)c(C)c(=O)c2c1` (single isomer, unassigned) [Example 52, 2-[1-[2-(1H-Indol-2-yl)-3,6-dimethyl-4-oxo-chromen-8-yl]ethylamino]benzoic acid], the IC50 was 500 to 1000 nM in assay [1], < 500 nM in assay [2] and < 50 nM in assay [3].

Consider `Cc1cc([C@@H](C)Nc2cccc(F)c2C(=O)O)c2oc(-c3ccc4cc[nH]c4n3)cc(=O)c2c1` [Example 241, 2-Fluoro-6-[[(1R)-1-[6-methyl-4-oxo-2-(1H-pyrrolo[2,3-b]pyridin-6-yl)chromen-8-yl]ethyl]amino]benzoic acid], for which the IC50 in assay [1] is 500 to 1000 nM; in assay [2], < 500 nM; in assay [3], 50 to 100 nM.

Turning to `Cc1cc(C(C)Nc2ccc(Cl)nc2C(=O)O)c2oc(-c3ccc4c(cnn4C)c3)cc(=O)c2c1` (single isomer, unassigned) [Example 218, 6-Chloro-3-[1-[6-methyl-2-(1-methylindazol-5-yl)-4-oxo-chromen-8-yl]ethylamino]pyridine-2-carboxylic acid], the IC50 in assay [1] is < 500 nM; in assay [2] it was < 500 nM; in assay [3], < 50 nM.
